The structures appear in SMILES notation. Several values for one entry are separate records, joined by “and”; a condition that tells them apart may be missing. Equal values may be shown once.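 Method: 48-hour compound exposure of cells in 96-well plates, five concentrations, linear interpolation of endpoints. Abbreviation: GI50, concentration required for 50% inhibition of growth. TGI marks complete inhibition of growth.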

Test systems include T-47D breast; HL-60(TB) leukemia; HCC-2998 colon; HT29 colon; K-562 leukemia; SF-539 CNS; LOX IMVI melanoma; SF-268 CNS; MALME-3M melanoma; NCI-H460 lung.
What all share (assay): DTP human tumour cell line panel, 48 h

For `CC(C)C[C@H](NC(=O)[C@@H](O)[C@H](N)Cc1ccccc1)C(=O)O`, the TGI in the assay with T-47D breast, with HL-60(TB) leukemia, in the assay on HCC-2998 colon, with HT29 colon, in the assay on K-562 leukemia and in the assay with SF-539 CNS was over 100 µM each time. The TGI with LOX IMVI melanoma, in the assay on SF-268 CNS, with MALME-3M melanoma and in the assay with NCI-H460 lung was over 100 µM throughout.

Take `CC1(C)CC2(C)OC2C2(C1)N=NC(=Nc1ccccc1)O2` (stereo not given): the GI50 in the assay with T-47D breast is 2.83 µM; with HL-60(TB) leukemia, 5.26 µM; with HCC-2998 colon, 13.2 µM; with HT29 colon, 2.95 µM; in the assay with K-562 leukemia it was 2.3 µM; in the assay with SF-539 CNS it was 7.94 µM. The GI50 is 1.06 µM in the assay with LOX IMVI melanoma, 4.9 µM in the assay on SF-268 CNS, 3.07 µM with MALME-3M melanoma and 11.3 µM with NCI-H460 lung. Also, the TGI is 14.4 µM in the assay on T-47D breast; 26.1 µM with HL-60(TB) leukemia; 26.6 µM in the assay with HCC-2998 colon; 10.9 µM in the assay on HT29 colon; 12.5 µM in the assay on K-562 leukemia; 20.9 µM in the assay on SF-539 CNS. The concentration for total growth inhibition (TGI) stood at 2.62 µM in the assay on LOX IMVI melanoma, 19.1 µM in the assay with SF-268 CNS, 12.1 µM in the assay with MALME-3M melanoma and 31.5 µM in the assay on NCI-H460 lung.

Take `COc1cc(C2c3cc4c(cc3[C@@H](Nc3cccc(O)c3)C3COC(=O)[C@H]23)OCO4)cc(OC)c1O` (stereo not given in full): the TGI in the assay on T-47D breast was 53.2 µM; with HL-60(TB) leukemia it was 0.802 µM and 2.73 µM; in the assay on HCC-2998 colon it was 8.81 µM; in the assay on HT29 colon it was 18.8 µM; in the assay on K-562 leukemia, 22.2 µM; in the assay on SF-539 CNS, 4.53 µM. Moreover, the TGI came to 7.3 µM in the assay on LOX IMVI melanoma, 14.1 µM with SF-268 CNS, 11.2 µM in the assay with MALME-3M melanoma and 3.55 µM in the assay with NCI-H460 lung. Also, the GI50 in the assay with HL-60(TB) leukemia is 0.23 µM; in the assay on K-562 leukemia, 0.802 µM; in the assay on SF-539 CNS, 0.482 µM; in the assay on LOX IMVI melanoma it was 0.535 µM; in the assay on SF-268 CNS it was 0.942 µM; in the assay on NCI-H460 lung it was 0.145 µM.

On to `C=C(C)[C@]12CC(C)C34OC(/C=C\C=C\CCCCCCCCC)(O[C@@H]1[C@@H]3[C@@H]1O[C@]1(CO)[C@@H](O)[C@]1(O)C(=O)C(C)=C[C@@H]41)O2` (stereo not given in full), for which the TGI in the assay on T-47D breast is 26.5 µM; in the assay on HL-60(TB) leukemia it was over 20.5 µM; with HT29 colon, 8.26 µM; in the assay on K-562 leukemia, over 35 µM; with SF-539 CNS, 17.2 µM; in the assay with LOX IMVI melanoma, 3.88 µM. Moreover, the results for the TGI in the assay on SF-268 CNS, in the assay on MALME-3M melanoma and in the assay on NCI-H460 lung were 28.5 µM, 23.1 µM and 16 µM, respectively. Moreover, the GI50 in the assay on HL-60(TB) leukemia is under 0.0001 µM; with HCC-2998 colon, under 0.0001 µM; in the assay with K-562 leukemia, under 0.0001 µM; in the assay on LOX IMVI melanoma it was 1.48 µM; in the assay on MALME-3M melanoma it was under 0.0001 µM; with NCI-H460 lung it was under 0.0001 µM.

For the molecule `Cc1nc(C(N)=S)sc1C(=O)CC(=O)C(=O)Nc1cccc(Cl)c1C`, the TGI with T-47D breast, in the assay on HL-60(TB) leukemia, in the assay with HCC-2998 colon, in the assay on HT29 colon, in the assay on K-562 leukemia and with SF-539 CNS was over 100 µM throughout. In addition, the TGI in the assay on LOX IMVI melanoma, in the assay with SF-268 CNS, with MALME-3M melanoma and with NCI-H460 lung was over 100 µM each time.

Turning to `CC(=O)N[C@@H]1CCC[C@H](C(=O)Nc2cc(-c3cnn4c3CC(C)(C)C4)c(Cl)cn2)C1`, the GI50 was 0.0101 µM in the assay with T-47D breast; under 0.01 µM with HL-60(TB) leukemia; under 0.0149 µM with HCC-2998 colon; under 0.0108 µM with HT29 colon; 0.0212 µM with K-562 leukemia; under 0.01 µM with SF-539 CNS. The GI50 in the assay with LOX IMVI melanoma was under 0.01 µM; in the assay on SF-268 CNS it was under 0.01 µM; with MALME-3M melanoma, 0.0216 µM; with NCI-H460 lung, under 0.0115 µM. The TGI in the assay with T-47D breast is 0.719 µM; in the assay with HL-60(TB) leukemia, under 0.017 µM; in the assay with HCC-2998 colon it was 0.237 µM; in the assay on HT29 colon, over 100 µM; with K-562 leukemia, over 100 µM; with SF-539 CNS, 0.0187 µM. Also, the total growth inhibition concentration (TGI) is over 100 µM with LOX IMVI melanoma, 0.431 µM with SF-268 CNS, 0.075 µM in the assay on MALME-3M melanoma and 12.4 µM with NCI-H460 lung.

Consider `CN(C)c1ccc(Sc2ccc3nc(N)nc(N)c3c2)cc1`, for which the GI50 in the assay on T-47D breast is 1.66 µM; with HL-60(TB) leukemia, 0.444 µM; in the assay on HCC-2998 colon it was 0.848 µM; in the assay with HT29 colon, 0.453 µM; in the assay on K-562 leukemia it was 0.142 µM; with SF-539 CNS, 0.985 µM. The GI50 in the assay with LOX IMVI melanoma was 0.3 µM; with SF-268 CNS it was 0.604 µM; with MALME-3M melanoma, 1.09 µM; in the assay with NCI-H460 lung it was 0.174 µM. Further, the total growth inhibition concentration (TGI) worked out at 4.82 µM in the assay on T-47D breast; 2.2 µM in the assay on HL-60(TB) leukemia; 4.84 µM in the assay with HCC-2998 colon; 12 µM in the assay on HT29 colon; 4.55 µM with K-562 leukemia; 10.3 µM with SF-539 CNS. Further, the TGI is 13.6 µM with LOX IMVI melanoma, 14.3 µM in the assay on SF-268 CNS, 2.87 µM in the assay on MALME-3M melanoma and 2.71 µM in the assay on NCI-H460 lung.

Turning to `O=[N+]([O-])O.[NH-]C1CCCCC1[NH-].[NH-]C1CCCCC1[NH-].[NH-]C1CCCCC1[NH-].[OH-].[OH-].[OH-].[Pt+4].[Pt+4].[Pt+4]` (stereo not given), the GI50 in the assay on T-47D breast was 1.08 µM; in the assay with HL-60(TB) leukemia, 1.09 µM; in the assay with HCC-2998 colon, 2.09 µM; in the assay on HT29 colon, 0.0889 µM; in the assay with K-562 leukemia it was 0.452 µM; in the assay with SF-539 CNS, 1.31 µM. In addition, the GI50 is 0.467 µM with LOX IMVI melanoma, 0.791 µM with SF-268 CNS, 0.199 µM with MALME-3M melanoma and 0.241 µM with NCI-H460 lung. In addition, the total growth inhibition concentration (TGI) was over 83.9 µM in the assay on T-47D breast; 4.01 µM in the assay on HL-60(TB) leukemia; 19 µM with HCC-2998 colon; over 100 µM in the assay on K-562 leukemia; over 68.8 µM with SF-539 CNS; over 85.7 µM with LOX IMVI melanoma. In addition, the TGI in the assay with SF-268 CNS was over 50.2 µM; with MALME-3M melanoma, 2.7 µM; with NCI-H460 lung, 7.07 µM.

Regarding `CC(C)(C)NCCC(O)c1cc(C(F)(F)F)nc2c(C(F)(F)F)cccc12` (stereo not given), the TGI stood at 30.9 µM in the assay with T-47D breast; 27.5 µM with HL-60(TB) leukemia; 8.73 µM in the assay with HCC-2998 colon; 20.1 µM in the assay with HT29 colon; 19.9 µM in the assay with K-562 leukemia; 31 µM in the assay with SF-539 CNS. Also, the TGI in the assay with LOX IMVI melanoma was found to be 5.31 µM; with SF-268 CNS it was 24.2 µM; in the assay on MALME-3M melanoma, 27.2 µM; with NCI-H460 lung, 16.8 µM.

Source of the values: PubChem BioAssay (NCI).
